The test system of series [1] is Monoamine oxidase activity from total brain protein extract. The experiment in a line: MPTP mouse model: monoamine oxidase fluorometric assay. The conditions noted are these: MPTP + masitinib 2 × 5 mg/kg, control = 100, MPTP = 108.
Experimental: (§1) Each treated group included 10 animals for the MPTP intoxicated groups and 5 animals for the controls. The loss of tyrosine hydroxylase expression, indicative of dopaminergic neuron destruction, was analyzed by western blotting, immunohistochemistry and ELISA assay.
This stock solution was defrosted before treatment of mice. The mice were treated orally by gavage with 0.1 ml corresponding to 25 mg/kg in a 24 g mouse.
(§2) C57BL/6J mice are intoxicated with MPTP using an acute protocol, as described hereafter. On the day of MPTP exposure each mouse received 4 injections of MPTP solution (20 mg/kg) at 2-hour intervals for 1 day.
(§3) Dosing was done 2 times per day at 6-hour interval starting day 7 before intoxication and stopping 7 days after MPTP administration. […] Before brain extraction mice were perfused with 0.9% NaCl 2.6 mM EDTA solution.
(§4) The treatment started 7 days before MPTP administration and continued 7 days after.
(§5) After mouse sacrifice and dissection, the left brain was submerged in 4% paraformaldehyde in PBS (phosphate buffered saline) solution for paraffin embedding and then cut into 5 μM-thick coronal section. And the right brain was immediately frozen in nitrogen liquid for protein analysis. The proteins were extracted with the homogenizer ultra turrax IKA-T10 basic system and quantified using the BCA test (bicinchoninic acid assay).
Series [2] relates to human cord blood mast cells. As to conditions: cited from earlier work.
The test system of series [3] is tyrosine hydroxylase in coronal brain sections. In words: MPTP mouse model of Parkinson's disease: tyrosine hydroxylase immunohistochemistry. As to conditions: immunohistochemistry on 5 μm-thick coronal sections; MPTP + masitinib 2 × 5 mg/kg. It counts as in vivo.
Series [4] has as its system Ba/F3 cells expressing PDGFR-α. As to conditions: read-out: IC50, PDGF-BB-stimulated proliferation and PDGFR-α tyrosine phosphorylation; cited from earlier work.
The test system of series [5] is Tyrosine Hydroxylase in total brain protein extract. In words: MPTP mouse model of Parkinson's disease: tyrosine hydroxylase ELISA assay.
Experimental: as §1
The mice were treated orally by gavage with 0.1 ml corresponding to 25 mg/kg in a 24 g mouse.
as §2, §3, §4, §5
The microliter plate wells were coated overnight at 4° C. with 5μg of total brain protein extract. […]
The test system is the same in series [6]. In words: MPTP mouse model of Parkinson's disease: tyrosine hydroxylase western blotting. As to conditions: MPTP alone (4 × 20 mg/kg, solvent-treated), control = 100.
Experimental: Each treated group included 10 animals for the MPTP intoxicated groups and 5 animals for the controls.
as §2
Before brain extraction mice were perfused with 0.9% NaCl 2.6 mM EDTA solution.
And the right brain was immediately frozen in nitrogen liquid for protein analysis. The proteins were extracted with the homogenizer ultra turrax IKA-T10 basic system and quantified using the BCA test (bicinchoninic acid assay).
30 μg of total brain protein were used for western blot analysis using 1:1000 dilution anti-tyrosine hydroxylase rabbit polyclonal antibody (Cat #AB152, Millipore) followed by 1:10000 horseradish peroxidase-conjugated anti-rabbit antibody (Jakson ImmunoResearch). Antibody to actin (Cat #A5316, Sigma Aldrich) were used as loading control followed by 1:10000 horseradish peroxidase-conjugated anti-mouse antibody (Jakson ImmunoResearch). Immunoreactive bands were detected using enhanced chemiluminescent reagents (GE Healthcare, Amersham, UK). Signal intensity was calculated using the Image J software.
The subject of series [7] is C57BL/6 mice. The experiment in a line: Mortality after MPTP intoxication. The format is in vivo, mouse. The conditions noted are these: 24 hours after treatment by the MPTP (4 injections of 20 mg/kg at 2-hour intervals). An excerpt:
Brain samples were collected after mice anesthesia and sacrifice.

For `Cc1ccc(NC(=O)c2ccc(CN3CCN(C)CC3)cc2)cc1Nc1nc(-c2cccnc2)cs1` [Masitinib, 4-(4-methylpiperazin-l-ylmethyl)-N-[4-methyl-3-(4-pyridin-3ylthiazol-2-ylamino)phenyl]benzamide], the “Monoamine oxidase fluorometric assay” value in series [1] is “maintained”. Moreover, in series [2], the FcϵRI-mediated degranulation result is recorded as “inhibition”. For the same molecule, the “in situ staining of tyrosine hydroxylase” value in series [3] is “positive effect”. Also, in series [4], the IC50 was 300 ± 5 nM. The “Mean expression of tyrosine hydroxylase” value was “significant attenuation” in series [5] (MPTP + masitinib 2 × 5 mg/kg per os, day -7 to day 7, control = 0.275, MPTP = 0.175, 5 mg/kg) and “did not modify significantly” in series [5] (masitinib alone 2 × 30 mg/kg per os, no MPTP, control = 0.275, 30 mg/kg).
For the molecule `CN1CC=C(c2ccccc2)CC1` [MPTP, 1-methyl-4-phenyl-1,2,3,6-tetrahydropyridine], the “Relative average expression of tyrosine hydroxylase” value in series [6] is given as 77. In addition, in series [7], the mortality result is “No mortality”.

Source of the values: patent US20180311236A1 (AB SCIENCE, priority 2015, published 2018).
